Measurements from the Kinase Knowledgebase extract (Sharma et al. 2016).

Molecular target: EGFR (human), P00533 [WT]
Sequence (P00533 whole entry, looked up): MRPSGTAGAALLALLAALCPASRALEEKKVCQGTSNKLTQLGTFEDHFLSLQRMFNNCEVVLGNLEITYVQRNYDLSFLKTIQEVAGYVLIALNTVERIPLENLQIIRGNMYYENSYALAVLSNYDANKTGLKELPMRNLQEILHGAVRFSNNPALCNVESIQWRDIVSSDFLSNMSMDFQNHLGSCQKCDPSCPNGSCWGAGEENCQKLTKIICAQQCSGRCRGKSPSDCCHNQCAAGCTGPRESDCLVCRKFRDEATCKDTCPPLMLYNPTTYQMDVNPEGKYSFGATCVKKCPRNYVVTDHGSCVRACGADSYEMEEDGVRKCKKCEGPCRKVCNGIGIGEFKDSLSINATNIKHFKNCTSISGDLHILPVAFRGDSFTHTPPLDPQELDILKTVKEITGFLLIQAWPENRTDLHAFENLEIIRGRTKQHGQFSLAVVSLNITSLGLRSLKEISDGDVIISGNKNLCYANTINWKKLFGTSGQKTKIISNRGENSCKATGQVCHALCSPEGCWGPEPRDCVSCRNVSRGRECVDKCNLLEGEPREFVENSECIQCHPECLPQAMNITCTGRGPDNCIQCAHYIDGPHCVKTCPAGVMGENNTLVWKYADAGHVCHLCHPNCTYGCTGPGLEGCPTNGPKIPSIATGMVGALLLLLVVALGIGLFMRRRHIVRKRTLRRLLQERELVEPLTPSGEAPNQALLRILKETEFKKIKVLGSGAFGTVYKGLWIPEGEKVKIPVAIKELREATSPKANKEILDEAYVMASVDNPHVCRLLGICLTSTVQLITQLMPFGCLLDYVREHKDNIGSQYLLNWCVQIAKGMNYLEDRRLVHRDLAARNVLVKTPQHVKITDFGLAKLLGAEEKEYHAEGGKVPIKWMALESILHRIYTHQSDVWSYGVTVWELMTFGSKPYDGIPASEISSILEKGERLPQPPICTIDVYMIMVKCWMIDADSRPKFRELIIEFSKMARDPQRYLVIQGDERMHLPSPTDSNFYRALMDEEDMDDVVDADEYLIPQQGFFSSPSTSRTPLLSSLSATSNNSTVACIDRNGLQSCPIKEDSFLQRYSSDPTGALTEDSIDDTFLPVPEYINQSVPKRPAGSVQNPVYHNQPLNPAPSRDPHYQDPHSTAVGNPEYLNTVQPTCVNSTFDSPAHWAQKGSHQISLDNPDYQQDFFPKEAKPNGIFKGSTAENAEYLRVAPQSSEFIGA

IC50, ≤ 10 nM:
CN(C)C/C=C/C(=O)Nc1cccc(Nc2cc(Nc3ccc(OCc4ccccn4)c(Cl)c3)ncn2)c1, C/C=C/C(=O)Nc1cccc(Nc2cc(Nc3cccc(Br)c3)ncn2)c1, CN(C)C/C=C/C(=O)Nc1cccc(Nc2cc(Nc3ccc(F)c(Cl)c3)ncn2)c1, CN(C)C/C=C/C(=O)Nc1cccc(Nc2cc(Nc3ccc(F)c(Cl)c3)ncn2)n1, C=CS(=O)(=O)Nc1cccc(Nc2cc(Oc3cccc(C(F)(F)F)c3)ncn2)c1, C=CC(=O)N1CCCC(Nc2cc(Nc3ccc(F)c(Cl)c3)ncn2)C1 (stereo not drawn), C=CC(=O)Nc1cccc(Nc2cc(Nc3ccc(Br)cc3F)ncn2)c1, C=CC(=O)Nc1cccc(Nc2cc(Nc3ccccc3)ncn2)n1, C=CC(=O)Nc1cccc(Nc2cc(Nc3ccccc3)ncn2)c1, CC#CC(=O)c1cccc(Nc2cc(Nc3ccc(Oc4ccccc4)cc3)ncn2)c1, CN(C)C/C=C/C(=O)N(C)c1cccc(Nc2cc(Nc3ccc(Oc4ccccc4)cc3)ncn2)n1, Cc1cccc(Oc2cc(Nc3cccc(NC(=O)C=CCN(C)C)n3)ncn2)c1, C=CC(=O)Nc1cccc(Nc2cc(Oc3cccc(C)c3)ncn2)n1, C=CC(=O)Nc1cccc(Nc2cc(Nc3ccc(OCc4ccccn4)c(Cl)c3)ncn2)c1, CN(C)C/C=C/C(=O)Nc1cccc(Nc2cc(Nc3ccccc3)ncn2)n1, C=CC(=O)Nc1ccc(Nc2cc(Nc3cccc(Br)c3)ncn2)cc1, C=CC(=O)Nc1cccc(Nc2cc(Nc3ccc(Oc4ccccc4)cc3)ncn2)n1, C=CS(=O)(=O)Nc1cccc(Nc2cc(Nc3ccc(OCc4cccc(F)c4)c(Cl)c3)ncn2)c1, C#Cc1cccc(Nc2cc(Nc3cccc(NC(=O)C=C)c3)ncn2)c1, CC(Cl)C(=O)Nc1cccc(Nc2cc(Nc3ccc(F)c(Cl)c3)ncn2)c1 (stereo not drawn), COc1ccc(NC(=O)/C=C/CN(C)C)cc1Nc1cc(Nc2ccc(F)c(Cl)c2)ncn1, C=CC(=O)Nc1cccc(Nc2cc(N3CCc4ccccc43)ncn2)c1, C=CC(=O)Nc1cccc(Nc2cc(Oc3cccc(C(F)(F)F)c3)ncn2)c1, CN(C)C/C=C/C(=O)Nc1cccc(Nc2cc(Oc3ccc(F)c(Cl)c3)ncn2)c1, C=CC(=O)Nc1cccc(Nc2cc(Nc3ccc(Oc4ccccc4)cc3)ncn2)c1, C=CS(=O)(=O)Nc1cccc(Nc2cc(Nc3ccc(F)c(Cl)c3)ncn2)c1, CN(C)C/C=C/C(=O)Nc1cccc(Nc2cc(Nc3ccc(OCc4cccc(F)c4)c(Cl)c3)ncn2)c1, C=CC(=O)Nc1cccc(Nc2cc(Oc3ccc(OC)cc3)ncn2)n1, C=CC(=O)N1CCC(Nc2cc(Nc3ccc(F)c(Cl)c3)ncn2)C1 (stereo not drawn), O=C(C=CCN1CCCC1)Nc1cccc(Nc2cc(Nc3ccc(F)c(Cl)c3)ncn2)c1, N#CC1(C(=O)Nc2cccc(Nc3cc(Nc4ccc(F)c(Cl)c4)ncn3)c2)CC1, CC=CC(=O)c1cccc(Nc2cc(Nc3ccc(Oc4ccccc4)cc3)ncn2)c1, C=CC(=O)Nc1cccc(Nc2cc(Nc3ccc(F)c(Cl)c3)ncn2)c1, C=CC(=O)Nc1cccc(Nc2cc(Nc3cccc(C)c3)ncn2)c1, C=CC(=O)N(C)c1cccc(Nc2cc(Nc3ccc(Oc4ccccc4)cc3)ncn2)n1, CN(C)C/C=C/C(=O)Nc1cccc(Nc2cc(Oc3ccc(Oc4ccccc4)cc3)ncn2)n1, C=CC(=O)Nc1cccc(Nc2cc(N(C)c3ccccc3)ncn2)c1, C=CC(=O)Nc1cccc(Nc2cc(Nc3cccc(Oc4ccccc4)c3)ncn2)c1, C=CC(=O)Nc1cccc(Nc2cc(Oc3ccc(Oc4ccccc4)cc3)ncn2)n1, O=C(CCl)Nc1cccc(Nc2cc(Nc3ccc(F)c(Cl)c3)ncn2)c1, Cc1cccc(Nc2cc(Nc3cccc(NC(=O)/C=C/CN(C)C)c3)ncn2)c1, C=CC(=O)Nc1cccc(Nc2cc(Oc3cccc(OC)c3)ncn2)n1, O=C(Nc1cccc(Nc2cc(Nc3ccc(F)c(Cl)c3)ncn2)c1)C1(C(F)(F)F)CC1, C=CC(=O)Nc1cccc(Nc2cc(Nc3cccc(Br)c3)ncn2)c1, C=CS(=O)(=O)Nc1cccc(Nc2cc(Nc3cccc(C)c3)ncn2)c1, Cc1ccc(NC(=O)/C=C/CN(C)C)cc1Nc1cc(Nc2ccc(F)c(Cl)c2)ncn1

Molecular target: EGFR (Human), P00533 [T790M/L858R]
Sequence (P00533 whole entry T790M/L858R, looked up): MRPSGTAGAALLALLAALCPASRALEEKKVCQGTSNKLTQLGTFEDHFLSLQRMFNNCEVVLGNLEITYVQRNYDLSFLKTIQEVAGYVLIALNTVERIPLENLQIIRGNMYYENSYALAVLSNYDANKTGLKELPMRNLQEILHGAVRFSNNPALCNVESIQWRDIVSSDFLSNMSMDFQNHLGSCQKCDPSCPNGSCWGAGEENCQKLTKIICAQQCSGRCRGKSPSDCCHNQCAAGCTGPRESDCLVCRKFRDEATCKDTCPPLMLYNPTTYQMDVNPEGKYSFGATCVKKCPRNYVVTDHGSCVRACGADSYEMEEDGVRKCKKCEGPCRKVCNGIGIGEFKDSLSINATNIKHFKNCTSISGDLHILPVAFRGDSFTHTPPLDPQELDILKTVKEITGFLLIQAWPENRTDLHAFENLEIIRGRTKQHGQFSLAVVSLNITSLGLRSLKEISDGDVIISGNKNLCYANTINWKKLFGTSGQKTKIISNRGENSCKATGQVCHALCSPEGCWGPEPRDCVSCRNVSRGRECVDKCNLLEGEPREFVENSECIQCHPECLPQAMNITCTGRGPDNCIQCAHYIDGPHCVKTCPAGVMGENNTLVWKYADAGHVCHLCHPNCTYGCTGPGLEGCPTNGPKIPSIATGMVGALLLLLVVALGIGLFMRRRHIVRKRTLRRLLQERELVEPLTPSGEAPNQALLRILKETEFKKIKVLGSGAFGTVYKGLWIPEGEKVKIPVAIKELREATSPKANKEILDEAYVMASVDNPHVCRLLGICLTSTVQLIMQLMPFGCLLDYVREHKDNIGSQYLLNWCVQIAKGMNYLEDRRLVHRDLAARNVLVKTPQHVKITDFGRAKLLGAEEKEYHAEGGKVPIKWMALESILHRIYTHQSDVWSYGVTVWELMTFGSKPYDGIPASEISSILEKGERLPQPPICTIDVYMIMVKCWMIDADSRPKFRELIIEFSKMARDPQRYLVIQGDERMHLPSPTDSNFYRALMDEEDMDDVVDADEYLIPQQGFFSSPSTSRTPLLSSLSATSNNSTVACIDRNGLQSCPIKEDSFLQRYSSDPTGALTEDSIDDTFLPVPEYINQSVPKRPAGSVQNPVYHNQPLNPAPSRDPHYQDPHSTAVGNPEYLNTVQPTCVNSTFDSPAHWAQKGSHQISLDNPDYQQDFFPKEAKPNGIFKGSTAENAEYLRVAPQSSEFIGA

IC50, ≤ 10 nM:
CN(C)C/C=C/C(=O)Nc1cccc(Nc2cc(Nc3ccc(F)c(Cl)c3)ncn2)n1, O=C(C=CCN1CCCC1)Nc1cccc(Nc2cc(Nc3ccc(F)c(Cl)c3)ncn2)c1
